Our source for the pest or weed control values is patent US20110086759A1, “CHEMICAL COMPOUNDS” (SYNGENTA CROP PROTECTION, INC., priority 2007, published 2011).

Holding throughout (format): in vivo
The subject of assay [1] is Alopecurus myosuroides (ALOMY). Kind of assay: Pre-emergence biological efficacy, glasshouse pot test. As to conditions: 312 h. The procedure, abridged: (§1)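 Scores on a 0–100 damage scale were taken 13 days after spraying. Application rate 1000 or 250 g/ha, one day after sowing, in acetone/water-based aqueous spray containing 0.5% Tween 20.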
The subject of assay [2] is Amaranthus retoflexus (AMARE). The description is as above. As to conditions: Amaranthus retroflexus, 312 h. The procedure, abridged:
as §1

The subject of assay [3] is Echinochloa crus-galli (ECHCG). The assay is described as above. As to conditions: 312 h. The procedure, abridged: as §1
For assay [4], the system named is Ipomea hederaceae (IPOHE). The assay is described as above. The note with it: Ipomoea hederacea, 312 h. The procedure, abridged: as §1
Assay [5] has as its system Setaria faberi (SETFA). The assay is described as above. The note with it: 312 h. The procedure, abridged: as §1
Assay [6] deals with Solanum nigrum (SOLNI). Described as above. As to conditions: 312 h. The procedure, abridged: as §1
Assay [7] deals with Alopecurus myosuroides (ALOMY). Kind of assay: Post-emergence biological efficacy, glasshouse pot test. The note with it: 312 h. The essentials: (§2)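 Scored 13 days after spraying on a 0 (no damage) to 100 (total damage) scale. Treatment was a post-emergence spray at 1000 or 250 g/ha, from acetone/water 50:50 plus 0.5% Tween 20, onto 8-day-old plants in soil pots. Growth at 24/16° C, 14 h photoperiod, 65% humidity, watered twice daily.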

For assay [8], the system named is Amaranthus retoflexus (AMARE). The assay is described as above. The note with it: Amaranthus retroflexus, 312 h. The essentials: as §2
Assay [9] relates to Echinochloa crus-galli (ECHCG). Described as above. As to conditions: 312 h. The procedure, abridged:
as §2

Assay [10] concerns Ipomea hederaceae (IPOHE). The description is as above. The note with it: Ipomoea hederacea, 312 h. The procedure, abridged: as §2
For assay [11], the system named is Setaria faberi (SETFA). Described as above. The note with it: 312 h. The procedure, abridged:
as §2

Assay [12] deals with Solanum nigrum (SOLNI). Described as above. As to conditions: 312 h. The procedure, abridged:
as §2

The mark [13] stands for this setting: pre-emergence, rate 1,000 g/ha, evaluated after 13 days (100=total damage to plant; 0=no damage), read-out: Percentage damage caused to weed species, ALOMY.
The mark [14] stands for this setting: pre-emergence, rate 1,000 g/ha, evaluated after 13 days (100=total damage to plant; 0=no damage), read-out: Percentage damage caused to weed species, AMARE.
Where [15] appears, read: pre-emergence, rate 1,000 g/ha, evaluated after 13 days (100=total damage to plant; 0=no damage), read-out: Percentage damage caused to weed species, ECHCG.
The mark [16] stands for this setting: pre-emergence, rate 1,000 g/ha, evaluated after 13 days (100=total damage to plant; 0=no damage), read-out: Percentage damage caused to weed species, IPOHE.
The mark [17] stands for this setting: pre-emergence, rate 1,000 g/ha, evaluated after 13 days (100=total damage to plant; 0=no damage), read-out: Percentage damage caused to weed species, SETFA.
The mark [18] stands for this setting: pre-emergence, rate 1,000 g/ha, evaluated after 13 days (100=total damage to plant; 0=no damage), read-out: Percentage damage caused to weed species, SOLNI.
[19] abbreviates: Rate 1,000 g/ha, post-emergence spray, evaluated after 13 days (100=total damage to plant; 0=no damage to plant), read-out: Percentage damage caused to weed species, post-emergence, ALOMY.
[20] abbreviates: Rate 1,000 g/ha, post-emergence spray, evaluated after 13 days (100=total damage to plant; 0=no damage to plant), read-out: Percentage damage caused to weed species, post-emergence, AMARE.
[21] abbreviates: Rate 1,000 g/ha, post-emergence spray, evaluated after 13 days (100=total damage to plant; 0=no damage to plant), read-out: Percentage damage caused to weed species, post-emergence, ECHCG.
Setting [22] is: Rate 1,000 g/ha, post-emergence spray, evaluated after 13 days (100=total damage to plant; 0=no damage to plant), read-out: Percentage damage caused to weed species, post-emergence, IPOHE.
[23] abbreviates: Rate 1,000 g/ha, post-emergence spray, evaluated after 13 days (100=total damage to plant; 0=no damage to plant), read-out: Percentage damage caused to weed species, post-emergence, SETFA.
The mark [24] stands for this setting: Rate 1,000 g/ha, post-emergence spray, evaluated after 13 days (100=total damage to plant; 0=no damage to plant), read-out: Percentage damage caused to weed species, post-emergence, SOLNI.
[25] abbreviates: pre-emergence, 1,000 g/ha, evaluated after 13 days (100=total damage; 0=no damage), read-out: Percentage damage ALOMY.
[26] abbreviates: pre-emergence, 1,000 g/ha, evaluated after 13 days (100=total damage; 0=no damage), read-out: Percentage damage AMARE.
Setting [27] is: pre-emergence, 1,000 g/ha, evaluated after 13 days (100=total damage; 0=no damage), read-out: Percentage damage ECHCG.
Where [28] appears, read: pre-emergence, 1,000 g/ha, evaluated after 13 days (100=total damage; 0=no damage), read-out: Percentage damage IPOHE.
Setting [29] is: pre-emergence, 1,000 g/ha, evaluated after 13 days (100=total damage; 0=no damage), read-out: Percentage damage SETFA.
Where [30] appears, read: pre-emergence, 1,000 g/ha, evaluated after 13 days (100=total damage; 0=no damage), read-out: Percentage damage SOLNI.
[31] abbreviates: post-emergence, 1,000 g/ha, evaluated after 13 days (100=total damage; 0=no damage), read-out: Percentage damage caused to weed species, ALOMY.
The mark [32] stands for this setting: post-emergence, 1,000 g/ha, evaluated after 13 days (100=total damage; 0=no damage), read-out: Percentage damage caused to weed species, AMARE.
The mark [33] stands for this setting: post-emergence, 1,000 g/ha, evaluated after 13 days (100=total damage; 0=no damage), read-out: Percentage damage caused to weed species, ECHCG.
Setting [34] is: post-emergence, 1,000 g/ha, evaluated after 13 days (100=total damage; 0=no damage), read-out: Percentage damage caused to weed species, IPOHE.
The mark [35] stands for this setting: post-emergence, 1,000 g/ha, evaluated after 13 days (100=total damage; 0=no damage), read-out: Percentage damage caused to weed species, SETFA.
Setting [36] is: post-emergence, 1,000 g/ha, evaluated after 13 days (100=total damage; 0=no damage), read-out: Percentage damage caused to weed species, SOLNI.

With `COC(=O)c1nc(C2CC2)nc(N(C)Cc2cccc(C(F)(F)F)c2)c1Cl` [Compound 5-76, 5-Chloro-2-cyclopropyl-6-methoxycarbonyl-4-[N-methyl-N-(3-trifluoromethyl-phenylmethyl)-amino]pyrimidine], the pest or weed control at 1000 g/ha in assay [1] (setting [13]) came out at 10%; in [2] (setting [14]), 80%; in assay [3] (setting [15]), 20%; in [4] (setting [16]), 60%; in assay [5] (setting [17]) it was 30%; in assay [6] (setting [18]), 40%. For the same molecule, the pest or weed control at 1000 g/ha in assay [7] (setting [19]) is 40%; in assay [8] (setting [20]) it was 100%; in [9] (setting [21]) it was 50%; in [10] (setting [22]), 90%; in assay [11] (setting [23]) it was 80%; in assay [12] (setting [24]), 90%.
Turning to `COC(=O)c1nc(C2CC2)nc(NCCSCc2ccccc2)c1Cl` [Compound 4-262, 5-Chloro-2-cyclopropyl-6-methoxycarbonyl-4-[2-(phenylmethyl-thio)ethylamino]-pyrimidine], the pest or weed control at 1000 g/ha in [1] (setting [25]) was 0%; in assay [2] (setting [26]), 40%; in assay [3] (setting [27]) it was 0%; in assay [4] (setting [28]) it was 50%; in assay [5] (setting [29]), 0%; in assay [6] (setting [30]) it was 10%. Also, the pest or weed control at 1000 g/ha in assay [7] (setting [31]) was 10%; in [8] (setting [32]), 80%; in [9] (setting [33]) it was 10%; in [10] (setting [34]), 60%; in assay [11] (setting [35]) it was 30%; in [12] (setting [36]) it was 60%.
Consider `O=C(NCc1ccco1)c1nc(C2CC2)nc(NCc2ccco2)c1Cl` [Compound 265-3, 5-Chloro-2-cyclopropyl-4-(furan-2-ylmethylamino)-6-(furan-2-yl-methylamino-carbonyl)-pyrimidine], for which the pest or weed control at 1000 g/ha in [1] (setting [13]) was 20%; in [2] (setting [14]), 60%; in assay [3] (setting [15]) it was 30%; in [4] (setting [16]) it was 90%; in assay [5] (setting [17]) it was 40%; in [6] (setting [18]), 60%. The pest or weed control at 1000 g/ha in assay [7] (setting [19]) was 20%; in [8] (setting [20]), 70%; in assay [9] (setting [21]), 30%; in assay [10] (setting [22]), 70%; in assay [11] (setting [23]), 20%; in [12] (setting [24]), 70%.
For the molecule `CCN(Cc1cccs1)c1nc(C2CC2)nc(C(=O)OC)c1Cl` [Compound 6-140, 5-Chloro-2-cyclopropyl-4-(N-ethyl-N-thiophen-2-ylmethyl-amino)6-methoxycarbonyl-pyrimidine], the pest or weed control at 1000 g/ha in assay [1] (setting [13]) was 10%; in [2] (setting [14]), 80%; in assay [3] (setting [15]), 20%; in assay [4] (setting [16]), 80%; in assay [5] (setting [17]), 0%; in assay [6] (setting [18]) it was 30%. For the same molecule, the pest or weed control at 1000 g/ha is 40% in [7] (setting [19]); 100% in [8] (setting [20]); 40% in [9] (setting [21]); 100% in assay [10] (setting [22]); 70% in assay [11] (setting [23]); 80% in assay [12] (setting [24]).
For the molecule `CCN(Cc1cccc(F)c1)c1nc(C2CC2)nc(C(=O)OC)c1Cl` [Compound 6-65, 5-Chloro-2-cyclopropyl-4-[N-ethyl-N-(3-fluorophenylmethyl)-amino]-6-methoxycarbonyl-pyrimidine], the pest or weed control at 1000 g/ha in assay [1] (setting [13]) worked out at 20%; in assay [2] (setting [14]), 70%; in assay [3] (setting [15]), 20%; in assay [4] (setting [16]) it was 70%; in [5] (setting [17]), 30%; in assay [6] (setting [18]), 40%. For the same molecule, the pest or weed control at 1000 g/ha came to 10% in [7] (setting [19]); 100% in assay [8] (setting [20]); 70% in assay [9] (setting [21]); 100% in [10] (setting [22]); 90% in [11] (setting [23]); 90% in [12] (setting [24]).
For `COC(=O)c1nc(C2CC2)nc(NCc2nc3ccccc3s2)c1Cl` [Compound 4-168, 4-(Benzothiazol-2-ylmethylamino)-5-chloro-2-cyclopropyl-6-methoxycarbonyl-pyrimidine], the pest or weed control at 1000 g/ha in assay [1] (setting [25]) is 20%; in assay [2] (setting [26]) it was 20%; in assay [3] (setting [27]) it was 20%; in assay [4] (setting [28]), 50%; in assay [5] (setting [29]), 0%; in [6] (setting [30]), 40%. Also, the pest or weed control at 1000 g/ha in [7] (setting [31]) came out at 30%; in assay [8] (setting [32]), 90%; in assay [9] (setting [33]), 40%; in [10] (setting [34]) it was 60%; in [11] (setting [35]) it was 60%; in assay [12] (setting [36]) it was 70%.
Consider `CCOC(=O)c1nc(C2CC2)nc(NCc2ccccc2)c1Cl` [Compound 7-60, 5-chloro-2-cyclopropyl-6-ethoxycarbonyl-4-phenylmethyl-aminopyrimidine], for which the pest or weed control at 1000 g/ha amounted to 30% in assay [1] (setting [13]); 70% in [2] (setting [14]); 50% in assay [3] (setting [15]); 70% in assay [4] (setting [16]); 50% in assay [5] (setting [17]); 90% in assay [6] (setting [18]). Moreover, the pest or weed control at 1000 g/ha in assay [7] (setting [19]) stood at 30%; in assay [8] (setting [20]), 100%; in assay [9] (setting [21]), 70%; in [10] (setting [22]), 90%; in assay [11] (setting [23]) it was 90%; in assay [12] (setting [24]), 90%.
